Patent publication US7772183B2 (Bristol-Myers Squibb Company, priority 2005, dated 2010)
Like-named read-outs stand apart in the source and are kept apart here.

Legend:
[1] = test system: HCV replicon in HUH-7 cells; test: HCV replicon FRET assay; assay type: cell-based, Hepatitis C virus (strain 1b); details: Hepatitis C virus
From the text: An HCV replicon whole cell system was established as described by Lohmann V, Komer F, Koch J, Herian U, Theilmann L, Bartenschlager R., Science 285(5424):110-3 (1999). This system enabled us to evaluate the effects of our HCV Protease compounds on HCV RNA replication. Briefly, using the HCV strain 1b sequence described in the Lohmann paper (Assession number: AJ238799), an HCV cDNA was synthesized by Operon Technologies, Inc. (Alameda, Calif.), and the full-length replicon was then assembled in plasmid pGem9zf(+) (Promega, Madison, Wis.) using standard molecular biology techniques. The replicon consists of (i) the HCV 5′ UTR fused to the first 12 amino acids of the capsid protein, (ii) the neomycin phosphotransferase gene (neo), (iii) the IRES from encephalomyocarditis virus (EMCV), and (iv) HCV NS3 to NS5B genes and the HCV 3′ UTR. Plasmid DNAs were linearized with Scal and RNA transcripts were synthesized in vitro using the T7 MegaScript transcription kit (Ambion, Austin, Tex.) according to manufacturer's directions. In vitro transcripts of the cDNA were transfected into the human hepatoma cell line, HUH-7. […] Resulting cell lines were characterized for positive and negative strand RNA production and protein production over time.
The HCV replicon FRET assay was developed to monitor the inhibitory effects of compounds described in the disclosure on HCV viral replication. HUH-7 cells, constitutively expressing the HCV replicon, were grown in Dulbecco's Modified Eagle Media (DMEM) (Gibco-BRL) containing 10% Fetal calf serum (FCS) (Sigma) and 1 mg/ml G418 (Gibco-BRL). Cells were seeded the night before (1.5×10^4 cells/well) in 96-well tissue-culture sterile plates. Compound and no compound controls were prepared in DMEM containing 4% FCS, 1:100 Penicillin/Streptomysin (Gibco-BRL), 1:100 L-glutamine and 5% DMSO in the dilution plate (0.5% DMSO final concentration in the assay). Compound/DMSO mixes were added to the cells and incubated for 4 days at 37° C. After 4 days, cells were first assessed for cytotoxicity using alamar Blue (Trek Diagnotstic Systems) for a CC50 reading. The toxicity of compound (CC50) was determined by adding 1/10th volume of alamar Blue to the media incubating the cells. After 4 hours, the fluorescence signal from each well was read, with an excitation wavelength at 530 nm and an emission wavelength of 580 nm, using the Cytofluor Series 4000 (Perspective Biosystems). Plates were then rinsed thoroughly with Phosphate-Buffered Saline (PBS) (3 times 150 μl). The cells were lysed with 25 μl of a lysis assay reagent containing an HCV protease substrate (5× cell Luciferase cell culture lysis reagent (Promega #E153A) diluted to 1× with distilled water, NaCl added to 150 mM final, the FRET peptide substrate (as described for the enzyme assay above) diluted to 10 μM final from a 2 mM stock in 100% DMSO. […]. The plate was then placed into the Cytofluor 4000 instrument which had been set to 340 nm excitation/490 nm emission, automatic mode for 21 cycles and the plate read in a kinetic mode. EC50 determinations were carried out as described for the IC50 determinations.

[2] = target: T1, HCV NS3/4A protease complex, BMS strain (UniProt P27958, species not given/STRAIN_BMS); test: FRET peptide assay to monitor HCV NS3/4A proteolytic activity (BMS strain); assay type: biochemical, Hepatitis C virus (genotype 1a); details: NS3/4A BMS strain; read-out: IC50 Range
T1 construct: said of H77 and J4L6S; fused on or other part: A three-lysine solubilising tail at the C-terminus of NS4A and a His tag (pET21b, Ni-NTA purification)
From the text: HCV NS3 protease complexes, derived from the BMS strain, H77 strain or J4L6S strain, were generated, as described below. These purified recombinant proteins were generated for use in a homogeneous assay (see below) to provide an indication of how effective compounds of the present disclosure would be in inhibiting HCV NS3 proteolytic activity.
Serum from an HCV-infected patient was obtained from Dr. T. Wright, San Francisco Hospital. An engineered full-length cDNA (compliment deoxyribonucleic acid) template of the HCV genome (BMS strain) was constructed from DNA fragments obtained by reverse transcription-PCR (RT-PCR) of serum RNA (ribonucleic acid) and using primers selected on the basis of homology between other genotype 1a strains. From the determination of the entire genome sequence, a genotype 1a was assigned to the HCV isolate according to the classification of Simmonds et al. (See P Simmonds, K A Rose, S Graham, S W Chan, F McOmish, B C Dow, E A Follett, P L Yap and H Marsden, J. Clin. Microbiol., 31(6), 1493-1503 (1993)). […] The infectious clones, H77 (1a genotype) and J4L6S (1b genotype) were obtained from R. Purcell (NIH) and the sequences are published in Genbank (AAB67036, see Yanagi, M., Purcell, R. H., Emerson, S. U. and Bukh, J. Proc. Natl. Acad. Sci. U.S.A. 94(16), 8738-8743 (1997); AF054247, see Yanagi, M., St Claire, M., Shapiro, M., Emerson, S. U., Purcell, R. H. and Bukh, J, Virology 244 (1), 161-172. (1998)).
The H77 and J4L6S strains were used for production of recombinant NS3/4A protease complexes. DNA encoding the recombinant HCV NS3/4A protease complex (amino acids 1027 to 1711) for these strains were manipulated as described by P. Gallinari et al. (see Gallinari P, Paolini C, Brennan D, Nardi C, Steinkuhler C, De Francesco R. Biochemistry. 38(17):5620-32, (1999)). Briefly, a three-lysine solubilizing tail was added at the 3′-end of the NS4A coding region. The cysteine in the P1 position of the NS4A-NS4B cleavage site (amino acid 1711) was changed to a glycine to avoid the proteolytic cleavage of the lysine tag. Furthermore, a cysteine to serine mutation was introduced by PCR at amino acid position 1454 to prevent the autolytic cleavage in the NS3 helicase domain. The variant DNA fragment was cloned in the pET21b bacterial expression vector (Novagen) and the NS3/4A complex was expressed in Escherichia coli strain BL21 (DE3) (Invitrogen) following the protocol described by P. Gallinari et al. (see Gallinari P, Brennan D, Nardi C, Brunetti M, Tomei L, Steinkuhler C, De Francesco R., J Virol. 72(8):6758-69 (1998)) with modifications. Briefly, the NS3/4A protease complex expression was induced with 0.5 mM Isopropyl β-D-1-thiogalactopyranoside (IPTG) for 22 hours (h) at 20° C. A typical fermentation (1 Liter (L)) yielded approximately 10 grams (g) of wet cell paste. The cells were resuspended in lysis buffer (10 mL/g) consisting of 25 mM N-(2-Hydroxyethyl)Piperazine-N′-(2-Ethane Sulfonic acid) (HEPES), pH 7.5, 20% glycerol, 500 mM Sodium Chloride (NaCl), 0.5% Triton X-100, 1 microgram/milliliter (“μg/mL”) lysozyme, 5 mM Magnesium Chloride (MgCl2), 1 μg/ml Dnasel, 5 mM β-Mercaptoethanol (βME), Protease inhibitor-Ethylenediamine Tetraacetic acid (EDTA) free (Roche), homogenized and incubated for 20 minutes (min) at 4° C. The homogenate was sonicated and clarified by ultra-centrifugation at 235000 g for 1 h at 4° C. Imidazole was added to the supernatant to a final concentration of 15 mM and the pH adjusted to 8.0. The crude protein extract was loaded on a Nickel-Nitrilotriacetic acid (Ni-NTA) column pre-equilibrated with buffer B (25 mM HEPES, pH 8.0, 20% glycerol, 500 mM NaCl, 0.5% Triton X-100, 15 mM imidazole, 5 mM βME). The sample was loaded at a flow rate of 1 mL/min. The column was washed with 15 column volumes of buffer C (same as buffer B except with 0.2% Triton X-100). The protein was eluted with 5 column volumes of buffer D (same as buffer C except with 200 mM Imidazole). […]

[3] = Huh-7, HCV replicon, for compounds tested, read-out: EC50 Range

T1 sequence (P27958 1027-1657, change not shown, one chain of several): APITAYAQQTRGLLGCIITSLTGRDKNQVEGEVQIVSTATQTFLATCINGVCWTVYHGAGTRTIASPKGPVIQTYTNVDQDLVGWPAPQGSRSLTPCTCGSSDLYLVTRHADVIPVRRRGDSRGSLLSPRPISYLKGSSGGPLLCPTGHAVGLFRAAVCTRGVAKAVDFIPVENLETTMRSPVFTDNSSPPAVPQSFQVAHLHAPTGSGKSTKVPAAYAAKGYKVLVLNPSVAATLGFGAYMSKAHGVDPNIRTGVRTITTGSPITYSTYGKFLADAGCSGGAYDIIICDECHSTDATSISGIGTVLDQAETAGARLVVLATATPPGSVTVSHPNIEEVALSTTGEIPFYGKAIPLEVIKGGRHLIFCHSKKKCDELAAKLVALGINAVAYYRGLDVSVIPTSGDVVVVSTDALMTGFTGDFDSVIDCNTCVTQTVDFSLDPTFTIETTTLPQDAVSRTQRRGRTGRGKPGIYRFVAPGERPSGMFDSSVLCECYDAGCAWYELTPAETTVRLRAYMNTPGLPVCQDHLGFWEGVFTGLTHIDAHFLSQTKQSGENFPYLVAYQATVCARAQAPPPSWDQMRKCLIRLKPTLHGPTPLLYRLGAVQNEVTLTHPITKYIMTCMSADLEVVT

Row | SMILES | EC50 [1, 3] | melting point | IC50 [2] | EC50 ([1]; Huh-7, read-out: EC50 Range)
1 | CC(C)(C)OC(=O)N[C@H]1CCCCC/C=C\[C@@H]2C[C@@]2(C(=O)NS(=O)(=O)C2CC2)NC(=O)[C@@H]2C[C@@H](OC(=O)c3ccc4nccnc4c3)CN2C1=O [Compound 24, 18-(6-quinoxalinecarbonyloxy)-14-tert-butoxycarbonylamino-4-cyclopropylsulfonylaminocarbonyl-2,15-dioxo-3,16-diazatricyclo-[14.3.0.0^4,6]-nonadec-7-ene] | < 100 nM | 158 to 160 °C | < 100 nM | –
2 | CC(C)(C)OC(=O)N[C@H]1CCCOC/C=C\[C@@H]2C[C@@]2(C(=O)NS(=O)(=O)C2CC2)NC(=O)[C@@H]2C[C@@H](OC(=O)c3ccc(-c4ccccc4)cc3)CN2C1=O [Compound 11, 18-(4-biphenylcarbonyloxy)-14-tert-butoxycarbonylamino-4-cyclopropylsulfonylaminocarbonyl-2,15-dioxo-3,16-diaza-10-oxatricyclo-[14.3.0.0^4,6]-nonadec-7-ene] | < 100 nM | 160 to 162 °C | < 100 nM | –
3 | CC(C)(C)OC(=O)N[C@H]1CCCOC/C=C\[C@@H]2C[C@@]2(C(=O)NS(=O)(=O)C2CC2)NC(=O)[C@@H]2C[C@@H](OC(=O)C(C)(C)C)CN2C1=O [Compound 4, 18-pivaloyloxy-14-tert-butoxycarbonylamino-4-cyclopropylsulfonylaminocarbonyl-2,15-dioxo-3,16-diaza-10-oxatricyclo-[14.3.0.0^4,6]-nonadec-7-ene] | > 1000 nM | 143 to 145 °C | < 100 nM | –
4 | CCC(C(=O)O[C@@H]1C[C@H]2C(=O)N[C@]3(C(=O)NS(=O)(=O)C4CC4)C[C@H]3/C=C\COCCC[C@H](NC(=O)OC(C)(C)C)C(=O)N2C1)c1ccccc1 (mixture of isomers) [Compound 5, 18-(2-phenylbutyryloxy)-14-tert-butoxycarbonylamino-4-cyclopropylsulfonylaminocarbonyl-2,15-dioxo-3,16-diaza-10-oxatricyclo-[14.3.0.0^4,6]-nonadec-7-ene] | > 1000 nM | 113 to 115 °C | < 100 nM | –
5 | COC(=O)c1ccccc1NC(=O)O[C@@H]1C[C@H]2C(=O)N[C@]3(C(=O)NS(=O)(=O)C4CC4)C[C@H]3/C=C\COCCC[C@H](NC(=O)OC(C)(C)C)C(=O)N2C1 [Compound 38, 18-(2-carbomethoxyphenylaminocarbonyloxy)-14-tert-butoxycarbonylamino-4-cyclopropylsulfonylaminocarbonyl-2,15-dioxo-3,16-diaza-10-oxatricyclo-[14.3.0.0^4,6]-nonadec-7-ene] | – | 147 to 149 °C | < 100 nM | 100 to 1000 nM
6 | CC(C)(C)OC(=O)N[C@H]1CCCCC/C=C\[C@@H]2C[C@@]2(C(=O)NS(=O)(=O)C2CC2)NC(=O)[C@@H]2C[C@@H](OC(=O)c3ccc(Cl)cc3)CN2C1=O [Compound 21, 18-(4-chlorobenzoyloxy)-14-tert-butoxycarbonylamino-4-cyclopropylsulfonylaminocarbonyl-2,15-dioxo-3,16-diazatricyclo-[14.3.0.0^4,6]-nonadec-7-ene] | < 100 nM | 143 to 145 °C | < 100 nM | –
7 | CC(C)(C)OC(=O)N[C@H]1CCCCC/C=C\[C@@H]2C[C@@]2(C(=O)NS(=O)(=O)C2CC2)NC(=O)[C@@H]2C[C@@H](OC(=O)c3ccc(-c4ccccc4)cc3)CN2C1=O [Compound 19, 18-(4-biphenylcarbonyloxy)-14-tert-butoxycarbonylamino-4-cyclopropylsulfonylaminocarbonyl-2,15-dioxo-3,16-diazatricyclo-[14.3.0.0^4,6]-nonadec-7-ene] | < 100 nM | 162 to 164 °C | < 100 nM | –
